Measured values taken from PubChem BioAssay AID1259407 (Chemical Carcinogenesis Research Information System (CCRIS), 2018).
Calls of active or inactive are those of the source. How the calls were made is not given here.

System: CCRIS mutagenicity, Ames/micronucleus/aberration tests
Test: CCRIS mutagenicity studies
[1] = Test System: AMES SALMONELLA TYPHIMURIUM, Strain/Indicator: TA97, Metabolic Activation: NONE, Method: PREINCUBATION
[2] = Test System: AMES SALMONELLA TYPHIMURIUM, Strain/Indicator: TA102, Metabolic Activation: NONE, Method: PREINCUBATION
[3] = Test System: AMES SALMONELLA TYPHIMURIUM, Strain/Indicator: TA98, Metabolic Activation: NONE, Method: STANDARD PLATE
[4] = Test System: AMES SALMONELLA TYPHIMURIUM, Strain/Indicator: TA100, Metabolic Activation: NONE, Method: STANDARD PLATE

O=C1C=CC(=O)c2c(O)c(Cl)c(Cl)c(O)c21
mutagenic call [1]: inactive; negative | mutagenic call (Test System: AMES SALMONELLA TYPHIMURIUM, Strain/Indicator: TA97, Metabolic Activation: RAT, LIVER, S-9, PHENOBARBITAL AND 5,6-BENZOFLAVONE, Method: PREINCUBATION): active; positive | mutagenic call (Test System: AMES SALMONELLA TYPHIMURIUM, Strain/Indicator: TA98, Metabolic Activation: NONE, Method: PREINCUBATION): inactive; negative | mutagenic call (Test System: AMES SALMONELLA TYPHIMURIUM, Strain/Indicator: TA98, Metabolic Activation: RAT, LIVER, S-9, PHENOBARBITAL AND 5,6-BENZOFLAVONE, Method: PREINCUBATION): inactive; negative | mutagenic call (Test System: AMES SALMONELLA TYPHIMURIUM, Strain/Indicator: TA100, Metabolic Activation: NONE, Method: PREINCUBATION): inactive; negative | mutagenic call (Test System: AMES SALMONELLA TYPHIMURIUM, Strain/Indicator: TA100, Metabolic Activation: RAT, LIVER, S-9, PHENOBARBITAL AND 5,6-BENZOFLAVONE, Method: PREINCUBATION): inactive; negative | mutagenic call [2]: inactive; negative | mutagenic call (Test System: AMES SALMONELLA TYPHIMURIUM, Strain/Indicator: TA102, Metabolic Activation: RAT, LIVER, S-9, PHENOBARBITAL AND 5,6-BENZOFLAVONE, Method: PREINCUBATION): active; positive | mutagenic call (Test System: AMES SALMONELLA TYPHIMURIUM, Strain/Indicator: TA104, Metabolic Activation: NONE, Method: PREINCUBATION): active; positive | mutagenic call (Test System: AMES SALMONELLA TYPHIMURIUM, Strain/Indicator: TA104, Metabolic Activation: RAT, LIVER, S-9, PHENOBARBITAL AND 5,6-BENZOFLAVONE, Method: PREINCUBATION): active; positive | mutagenic call (Test System: AMES SALMONELLA TYPHIMURIUM, Strain/Indicator: TA1535, Metabolic Activation: NONE, Method: PREINCUBATION): inactive; negative | mutagenic call (Test System: AMES SALMONELLA TYPHIMURIUM, Strain/Indicator: TA1535, Metabolic Activation: RAT, LIVER, S-9, PHENOBARBITAL AND 5,6-BENZOFLAVONE, Method: PREINCUBATION): inactive; negative | mutagenic call (Test System: AMES SALMONELLA TYPHIMURIUM, Strain/Indicator: TA1537, Metabolic Activation: NONE, Method: PREINCUBATION): inactive; negative | mutagenic call (Test System: AMES SALMONELLA TYPHIMURIUM, Strain/Indicator: TA1537, Metabolic Activation: RAT, LIVER, S-9, PHENOBARBITAL AND 5,6-BENZOFLAVONE, Method: PREINCUBATION): active; positive | mutagenic call (Test System: AMES SALMONELLA TYPHIMURIUM, Strain/Indicator: TA1538, Metabolic Activation: NONE, Method: PREINCUBATION): inactive; negative | mutagenic call (Test System: AMES SALMONELLA TYPHIMURIUM, Strain/Indicator: TA1538, Metabolic Activation: RAT, LIVER, S-9, PHENOBARBITAL AND 5,6-BENZOFLAVONE, Method: PREINCUBATION): inactive; negative | mutagenic call (Test System: AMES SALMONELLA TYPHIMURIUM, Strain/Indicator: TA2637, Metabolic Activation: NONE, Method: PREINCUBATION): inactive; negative | mutagenic call (Test System: AMES SALMONELLA TYPHIMURIUM, Strain/Indicator: TA2637, Metabolic Activation: RAT, LIVER, S-9, PHENOBARBITAL AND 5,6-BENZOFLAVONE, Method: PREINCUBATION): active; positive

O=C(O)CC(O)C(=O)O (configuration not stated)
mutagenic call [1]: inactive; negative | mutagenic call (Test System: AMES SALMONELLA TYPHIMURIUM, Strain/Indicator: TA97, Metabolic Activation: NONE, Method: STANDARD PLATE): inactive; negative | mutagenic call (Test System: AMES SALMONELLA TYPHIMURIUM, Strain/Indicator: TA97, Metabolic Activation: RAT, LIVER, S-9, AROCLOR 1254, Method: PREINCUBATION): inactive; negative | mutagenic call (Test System: AMES SALMONELLA TYPHIMURIUM, Strain/Indicator: TA97, Metabolic Activation: RAT, LIVER, S-9, PHENOBARBITAL, Method: STANDARD PLATE): inactive; negative | mutagenic call [3]: inactive; negative | mutagenic call (Test System: AMES SALMONELLA TYPHIMURIUM, Strain/Indicator: TA98, Metabolic Activation: RAT, LIVER, S-9, PHENOBARBITAL, Method: STANDARD PLATE): inactive; negative | mutagenic call [4]: inactive; negative | mutagenic call (Test System: AMES SALMONELLA TYPHIMURIUM, Strain/Indicator: TA100, Metabolic Activation: RAT, LIVER, S-9, PHENOBARBITAL, Method: STANDARD PLATE): inactive; negative | mutagenic call [2]: inactive; negative | mutagenic call (Test System: AMES SALMONELLA TYPHIMURIUM, Strain/Indicator: TA102, Metabolic Activation: RAT, LIVER, S-9, AROCLOR 1254, Method: PREINCUBATION): inactive; negative | mutagenic call (Test System: AMES SALMONELLA TYPHIMURIUM, Strain/Indicator: TA104, Metabolic Activation: NONE, Method: STANDARD PLATE): inactive; negative | mutagenic call (Test System: AMES SALMONELLA TYPHIMURIUM, Strain/Indicator: TA104, Metabolic Activation: RAT, LIVER, S-9, PHENOBARBITAL, Method: STANDARD PLATE): inactive; negative

CN(C)C(=O)Oc1ccc[n+](C)c1
mutagenic call (Test System: AMES SALMONELLA TYPHIMURIUM, Strain/Indicator: TA98, Metabolic Activation: HAMSTER, LIVER, S-9, AROCLOR 1254, Method: STANDARD PLATE): inactive; negative | mutagenic call [3]: inactive; negative | mutagenic call (Test System: AMES SALMONELLA TYPHIMURIUM, Strain/Indicator: TA98, Metabolic Activation: RAT, LIVER, S-9, AROCLOR 1254, Method: STANDARD PLATE): inactive; negative | mutagenic call (Test System: AMES SALMONELLA TYPHIMURIUM, Strain/Indicator: TA100, Metabolic Activation: HAMSTER, LIVER, S-9, AROCLOR 1254, Method: STANDARD PLATE): inactive; negative | mutagenic call [4]: inactive; negative | mutagenic call (Test System: AMES SALMONELLA TYPHIMURIUM, Strain/Indicator: TA100, Metabolic Activation: RAT, LIVER, S-9, AROCLOR 1254, Method: STANDARD PLATE): inactive; negative | mutagenic call (Test System: AMES SALMONELLA TYPHIMURIUM, Strain/Indicator: TA1535, Metabolic Activation: HAMSTER, LIVER, S-9, AROCLOR 1254, Method: STANDARD PLATE): inactive; negative | mutagenic call (Test System: AMES SALMONELLA TYPHIMURIUM, Strain/Indicator: TA1535, Metabolic Activation: NONE, Method: STANDARD PLATE): inactive; negative | mutagenic call (Test System: AMES SALMONELLA TYPHIMURIUM, Strain/Indicator: TA1535, Metabolic Activation: RAT, LIVER, S-9, AROCLOR 1254, Method: STANDARD PLATE): inactive; negative | mutagenic call (Test System: AMES SALMONELLA TYPHIMURIUM, Strain/Indicator: TA1537, Metabolic Activation: HAMSTER, LIVER, S-9, AROCLOR 1254, Method: STANDARD PLATE): inactive; negative | mutagenic call (Test System: AMES SALMONELLA TYPHIMURIUM, Strain/Indicator: TA1537, Metabolic Activation: NONE, Method: STANDARD PLATE): inactive; negative | mutagenic call (Test System: AMES SALMONELLA TYPHIMURIUM, Strain/Indicator: TA1537, Metabolic Activation: RAT, LIVER, S-9, AROCLOR 1254, Method: STANDARD PLATE): inactive; negative | mutagenic call (Test System: AMES SALMONELLA TYPHIMURIUM, Strain/Indicator: TA1538, Metabolic Activation: HAMSTER, LIVER, S-9, AROCLOR 1254, Method: STANDARD PLATE): inactive; negative | mutagenic call (Test System: AMES SALMONELLA TYPHIMURIUM, Strain/Indicator: TA1538, Metabolic Activation: NONE, Method: STANDARD PLATE): inactive; negative | mutagenic call (Test System: AMES SALMONELLA TYPHIMURIUM, Strain/Indicator: TA1538, Metabolic Activation: RAT, LIVER, S-9, AROCLOR 1254, Method: STANDARD PLATE): inactive; negative | mutagenic call (Test System: MOUSE LYMPHOMA, Strain/Indicator: L5178Y (TK+/TK-), Metabolic Activation: NONE, Method: SUSPENSION/PLATE): inactive; negative. reevaluation of results: negative | mutagenic call (Test System: MOUSE LYMPHOMA, Strain/Indicator: L5178Y (TK+/TK-), Metabolic Activation: RAT, LIVER, S-9, AROCLOR 1254, Method: SUSPENSION/PLATE): active; positive. reevaluation of results: equivocal
